Results reported in PMC2955234 (Investigational New Drugs, 2009).
Like-named read-outs stand apart in the source and are kept apart here. Each block holds one molecule with its values, some of them ahead of it.

Columns and labels:
lymphocyte = assay: Drug lymphocyte stimulation test in the two patients with erythema multiforme; format: cell-based, human; conditions: both patients with erythema multiforme of cohort 1
[1] = format: in vivo, human
Dose-limiting toxicity = format: in vivo, human; conditions: in combination with carboplatin AUC 5 mg min mL^−1 and paclitaxel 200 mg/m^2, Japanese patients with advanced NSCLC
[2] = Pharmacokinetics of sorafenib in plasma; format: in vivo; conditions: human, oral, 400 mg; for Cmax: C max
[3] = sorafenib at 400 mg twice daily
[4] = Cohort 2, dose-adjusted ratio cycle 2 relative to cycle 1

SMILES: N.N.O=C([O-])C1(C(=O)[O-])CCC1.[Pt+2] [carboplatin]
- drug lymphocyte stimulation test result (lymphocyte): negative
- effect of sorafenib on the pharmacokinetics [1, 3]: no effect

- increases in the AUC and C max values after sorafenib administration [1, 3]: not statistically significant
SMILES: CC(=O)O[C@H]1C(=O)[C@@]2(C)[C@H]([C@H](OC(=O)c3ccccc3)[C@]3(O)C[C@H](OC(=O)[C@H](O)[C@@H](NC(=O)c4ccccc4)c4ccccc4)C(C)=C1C3(C)C)[C@]1(OC(C)=O)CO[C@@H]1[C@@H](O)[C@@H]2O [6-hydroxy-paclitaxel]

SMILES: CNC(=O)c1cc(Oc2ccc(NC(=O)Nc3ccc(Cl)c(C(F)(F)F)c3)cc2)ccn1 [Sorafenib]
- dose of sorafenib confirmed to be feasible (Dose-limiting toxicity): 400 mg once daily
- drug lymphocyte stimulation test result (lymphocyte): positive
- AUC(0-t) ([2]; AUC0–12, Cohort 1, cycle 1, day 2, 400 mg sd (n = 6), geometric mean (% CV)): 18200 ng·h/mL
- AUC(0-t) ([2]; AUC0–12, Cohort 2, cycle 1, day 2, 400 mg sd (n = 7), geometric mean (% CV)): 9000 ng·h/mL
- AUC(0-t) ([2]; AUC0–12, Cohort 2, cycle 1, day 19, 400 mg od (n = 7), geometric mean (% CV)): 24400 ng·h/mL
- AUC(0-t) ([2]; AUC0–12, Cohort 2, cycle 2, day 2, 400 mg sd (n = 6), geometric mean (% CV)): 14600 ng·h/mL
- Cmax ([2]; Cohort 1, cycle 1, day 19, 400 mg bid (n = 3), geometric mean (% CV)): 4600 ng/mL
- Cmax ([2]; Cohort 2, cycle 1, day 2, 400 mg sd (n = 7), geometric mean (% CV)): 1200 ng/mL
- Cmax ([2]; Cohort 2, cycle 1, day 19, 400 mg od (n = 7), geometric mean (% CV)): 3200 ng/mL
- Cmax ([2]; Cohort 2, cycle 2, day 19, 400 mg bid (n = 4), geometric mean (% CV)): 5900 ng/mL
- half-life ([2]; mean t 1/2, on day 19, across cohorts and cycles): 20.4 to 26.8 h
- half-life ([2]; t 1/2, Cohort 1, cycle 1, day 19, 400 mg bid (n = 3), geometric mean (% CV)): 20.4 h
- half-life ([2]; t 1/2, Cohort 2, cycle 1, day 19, 400 mg od (n = 7), geometric mean (% CV)): 26.8 h
- half-life ([2]; t 1/2, Cohort 2, cycle 2, day 19, 400 mg bid (n = 4), geometric mean (% CV)): 23.9 h

- drug lymphocyte stimulation test result (lymphocyte): negative
- AUC Ratio [90% CI] [1, 4]: 1.05 [0.88–1.25]
- C max Ratio [90% CI] [1, 4]: 1.19 [0.80–1.77]
- C max Ratio [90% CI] ([1]; Cohort 2, dose-adjusted ratio cycle 3 relative to cycle 1): 1.39 [0.88–2.21]
- increases in the AUC and C max values after sorafenib administration [1, 3]: not statistically significant
SMILES: CC(=O)O[C@H]1C(=O)[C@@]2(C)[C@H]([C@H](OC(=O)c3ccccc3)[C@]3(O)C[C@H](OC(=O)[C@H](O)[C@@H](NC(=O)c4ccccc4)c4ccccc4)C(C)=C1C3(C)C)[C@]1(OC(C)=O)CO[C@@H]1C[C@@H]2O [Paclitaxel]
